Data: article PMC9821843, “Powerful Potential of Polyfluoroalkyl-Containing 4-Arylhydrazinylidenepyrazol-3-ones for Pharmaceuticals” (Molecules, 2022)
Converted amounts (≈) assume the structure as drawn. Like-named read-outs stand apart in the source and are kept apart here.

Key:
[1] = molecular target: T1, human erythrocyte acetylcholinesterase (AChE, EC 3.1.1.7) (Homo sapiens, UniProt P22303); assay: Inhibition of human erythrocyte acetylcholinesterase (Ellman assay); assay type: biochemical; details: read-out: Inhibition % at 20 µM, Human AChE
T1 construct: human erythrocyte acetylcholinesterase (AChE, EC 3.1.1.7); purchased Sigma-Aldrich (Saint Louis, MO, USA); host or cells: human erythrocytes
Description: (§1) The following enzymes were purchased from Sigma-Aldrich (Saint Louis, MO, USA): porcine liver carboxylesterase (CES, EC 3.1.1.1), human erythrocyte acetylcholinesterase (AChE, EC 3.1.1.7) and equine serum butyrylcholinesterase (BChE, EC 3.1.1.8). Substrates for CES, AChE and BChE were 4-nitrophenyl acetate (4-NPA), acetylthiocholine iodide (ATCh) and butyrylthiocholine iodide (BTCh), respectively, and the colorimetric reagent for the AChE and BChE assays was 5,5’-dithio-bis-(2-nitrobenzoic acid) (DTNB) (Sigma-Aldrich). All the kinetic experiments were performed under standard conditions, according to the protocol of IPAC RAS for a reversible inhibitors study.
Reagent blanks consisted of reaction mixtures without enzyme to assess non-enzymatic hydrolysis of substrates.
Test compounds were dissolved in DMSO. Reaction mixtures contained a final DMSO concentration of 2% (v/v). […] Measurements were performed in a Bio-Rad Benchmark Plus microplate reader. Each experiment was performed in triplicate. Plots, linear regressions and values of IC50, were determined using Origin 6.1 for Windows, OriginLab (Northampton, MA, USA).

[2] = system: Epidermophyton floccosum RCPF F 1659/17; assay: Antifungal susceptibility testing, E. floccosum; details: Epidermophyton floccosum, RCPFF1659/17, read-out: MIC for fungi strains inhibition, E. floccosum
Description: (§3) The solvent was DMSO. […] In each test, a growth control and a sterility control were used.

[3] = Oxygen radical absorbance capacity (ORAC-FL) assay; details: n.a. = inactive; i.t.s. = interferes with test system
Summary of the method: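 Fluorescein oxidative degradation by the peroxyl radical generator AAPH is monitored in the presence of test compound, a HAT-based read-out. Activity is expressed relative to Trolox as reference antioxidant.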

[4] = system: Trichophyton rubrum RCPF F 1408; assay: Antifungal susceptibility testing, T. rubrum; details: Trichophyton rubrum, RCPFF1408, read-out: MIC for fungi strains inhibition, T. rubrum
Description: as §3

[5] = system: Microsporum canis RCPF F 1643/1585; assay: Antifungal susceptibility testing, M. canis; details: Microsporum canis, RCPFF1643/1585, read-out: MIC for fungi strains inhibition, M. canis
Description: as §3

[6] = Acute toxicity evaluation in mice (ip); details: CD-1, mouse, in vivo, 300 mg/kg
Procedure: The toxicity evaluation was performed on CD-1 mice. […] The tested compounds in 1% starch mucilage were injected intraperitoneally into three mice. Then, animals were observed during 14 days, the number of deaths was counted and % of viability calculated.

[7] = molecular target: porcine liver carboxylesterase (CES, EC 3.1.1.1) (Sus scrofa, UniProt Q29550); assay: Inhibition of porcine liver carboxylesterase (4-NPA colorimetric assay); assay type: biochemical; details: 20 µM; n.a. = inactive at 20 µM; mean ± SEM, n = 3
Description: as §1
The CES (porcine liver) activity was assessed colorimetrically in 0.1 M K/Na phosphate buffer pH 8.0, 25 °C, by measuring the absorbance of 4-nitrophenol at 405 nm. Final enzyme and substrate (4-NPA) concentrations were 0.02 unit/mL and 1 mM, respectively. Reagent blanks included all constituents except enzyme.
Test compounds were dissolved in DMSO. Reaction mixtures contained a final DMSO concentration of 2% (v/v). Enzyme inhibition was first assessed at a single concentration of 20 µM for each compound after a 5 min incubation at 25 °C in three separate experiments. […] Substrate was then added and residual enzyme activity relative to an inhibitor-free control was measured using a Bio-Rad Benchmark Plus microplate reader (Marnes-la-Coquette, France).
Measurements were performed in a Bio-Rad Benchmark Plus microplate reader. Each experiment was performed in triplicate. Plots, linear regressions and values of IC50, were determined using Origin 6.1 for Windows, OriginLab (Northampton, MA, USA). Results were calculated using GraphPad Prism version 6.05 for Windows, GraphPad Software (La Jolla, CA, USA) and presented as mean ± SEM.

[8] = system: Candida albicans RCPF Y 401/NCTC 885/653; assay: Antifungal susceptibility testing, C. albicans; details: NCTC885, read-out: MIC for fungi strains inhibition, C. albicans
Description: as §3

Sprague-Dawley (SD) rats = assay: Hot plate test (analgesic activity); assay type: in vivo; details: Rattus norvegicus, hot plate test, rats, ip, dose 15 mg/kg, n.a. = inactive (p > 0.05)
Summary of the method: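 Test compounds were given i.p. as suspensions in 1% starch mucilage to SD rats (3 male, 3 female per group), vehicle as negative control. At 1 and 2 h post-dose, latency to nociceptive response (jumping, hind paw licking/shaking) on a 50 °C plate was recorded, 30 s cutoff.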

[9] = molecular target: T2, equine serum butyrylcholinesterase (BChE, EC 3.1.1.8) (Equus caballus, UniProt P81908); assay: Inhibition of equine serum butyrylcholinesterase (Ellman assay); assay type: biochemical; details: read-out: Inhibition % at 20 µM, Equine BChE
T2 construct: equine serum butyrylcholinesterase (BChE, EC 3.1.1.8); purchased Sigma-Aldrich (Saint Louis, MO, USA); host or cells: equine serum
Summary of the method: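 Ellman colorimetric assay with 0.02 unit/mL BChE, 1 mM butyrylthiocholine iodide and 0.33 mM DTNB, 2% (v/v) DMSO final; substrate added after enzyme-compound mixing. Residual activity versus inhibitor-free control, blanks without enzyme; triplicates, IC50 by linear regression.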

[10] = system: Neisseria gonorrhoeae ATCC 49226/NCTC 12700; assay: Antibacterial activity against Neisseria gonorrhoeae; assay type: cell-based; details: read-out: MIC against Neisseria gonorrhoeae
HeLa tumor cell line = assay: Cytotoxicity against HeLa cells (MTT assay); assay type: cell-based, human; details: Homo sapiens, HeLa, 72 h, read-out: IC50, HeLa
Procedure: (§2) Cytotoxicity of compounds was evaluated using a culture of human dermal fibroblasts, which were isolated in the Laboratory of Cell Cultures of the Institute of Medical Cell Technologies, Ekaterinburg, Russia and a HeLa tumor cell line obtained at the shared research facility «Vertebrate cell culture collection» of the Institute of Cytology of the Russian Academy of Sciences, St. Petersburg, Russia. Cells were seeded in 96-well plates in the inoculum dose of 2 × 10^5 cells/mL and cultured for 24 h in DMEM, with 1% glutamine in the presence of 10% fetal bovine serum and gentamicin (50 mg/L) at 37 °C, with humidified atmosphere of 5% CO2. Then compounds, which were dissolved in DMSO, were added to the wells at the final concentrations of 10^–7, 10^–6, 10^–5 and 10^–4 M. The cells were incubated with compounds for 72 h, after which cell viability was assessed using the standard MTT assay. The assay was carried out in four replicates with negative (culture medium), positive (solution of the cytotoxic drug camptothecin at a concentration of 3 mM) controls and the solvent control (DMSO). The results of the MTT assay were evaluated on a Tecan Infinite M200 PRO (Tecan Austria GmbH, Grödig, Austria) plate spectrophotometer by comparing the optical density of a formazan solution at 570 nm in the assay and control wells. The half maximal inhibitory concentrations (IC50) were calculated by AAT Bioquest-calculator (https://www.aatbio.com/tools/ic50-calculator (accessed on 14 November 2022)).

human dermal fibroblasts = assay: Cytotoxicity against human dermal fibroblasts (MTT assay); assay type: cell-based; details: Fibroblast, 72 h, read-out: IC50, Human Dermal Fibroblasts
Procedure: as §2

[11] = Ferric reducing antioxidant power (FRAP) assay; details: 20 μM; n.a. = inactive
Description: The FRAP assay measures the ability of anti-oxidants to reduce the ferric 2,4,6-tripyridyl-s-triazine complex [Fe(TPTZ)2]^3+ to the intensely blue ferrous colored complex [Fe(TPTZ)2]^2+ with an absorption maximum at λ = 593 nm. The reducing ability of a compound is an indicator of its potential anti-oxidant activity. 2,4,6-Tris(pyridin-2-yl)-1,3,5-triazine (TPTZ), FeCl3·6H2O, Trolox and DMSO were obtained from Sigma-Aldrich Chemical Co (St. Louis, MO, USA).
The ferric reducing ability of the compounds was determined by the method in microplate adapted version described in [116]. The FRAP reagent was prepared by mixing acetate buffer (0.3 M, pH 3.6), TPTZ (10 mM in 40 mM HCl) and FeCl3·6H2O (20 mM in distilled water) in a ratio of 10:1:1 immediately before use. Compounds were dissolved in DMSO and tested in the concentration 20 μM. The solvent content in the reaction mixture was 4% (v/v). The test compounds (10 μL of 0.5 mM solution) were added to the FRAP reagent solution (240 μL) and mixed thoroughly. The reaction was carried out at 37 °C in the dark; the incubation time was 1 h. The absorbance at 600 nm was monitored spectrophotometrically by a FLUOStar OPTIMA microplate reader (BMG Labtech, Ortenberg, Germany) at 37 °C. Trolox was used as a reference compound. Values were obtained from four replicates of each sample in three independent experiments.
The ferric reducing ability of compounds was expressed as TE units (antioxidant activity in Trolox equivalent), the values calculated as the ratio of the concentrations of Trolox and the test compound resulting in the same effect. The calculations were carried out using Origin 6.1 for Windows. Results were presented as mean ± SEM, calculated using GraphPad Prism version 6.05 for Windows, GraphPad Software.

[12] = ABTS radical cation scavenging activity assay; parameters: key to ABTS•+-scavenging activity, TEAC (trolox equivalent antioxidant capacity): TEAC = ratio of compound slope to Trolox slope vs ABTS absorbance; details: mean ± SEM; for ABTS•+-scavenging activity, TEAC (trolox equivalent antioxidant capacity): n.a. = inactive
Summary of the method: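 ABTS•+ (from 7 mM ABTS plus 2.45 mM persulfate) mixed with compound, 5 × 10^–7–4 × 10^–4 M, 1 h at 30 °C; absorbance decrease read at 734 nm. TEAC from slope ratio versus Trolox; IC50 as 50% radical reduction for compounds exceeding 60% reduction at 100 µM.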

[13] = 1 h, read-out: Latent Period Prolongation, % 1 h
[14] = 2 h, read-out: Latent Period Prolongation, % 2 h

T1 sequence (P22303 32-617 isoform P22303-2 limits assumed): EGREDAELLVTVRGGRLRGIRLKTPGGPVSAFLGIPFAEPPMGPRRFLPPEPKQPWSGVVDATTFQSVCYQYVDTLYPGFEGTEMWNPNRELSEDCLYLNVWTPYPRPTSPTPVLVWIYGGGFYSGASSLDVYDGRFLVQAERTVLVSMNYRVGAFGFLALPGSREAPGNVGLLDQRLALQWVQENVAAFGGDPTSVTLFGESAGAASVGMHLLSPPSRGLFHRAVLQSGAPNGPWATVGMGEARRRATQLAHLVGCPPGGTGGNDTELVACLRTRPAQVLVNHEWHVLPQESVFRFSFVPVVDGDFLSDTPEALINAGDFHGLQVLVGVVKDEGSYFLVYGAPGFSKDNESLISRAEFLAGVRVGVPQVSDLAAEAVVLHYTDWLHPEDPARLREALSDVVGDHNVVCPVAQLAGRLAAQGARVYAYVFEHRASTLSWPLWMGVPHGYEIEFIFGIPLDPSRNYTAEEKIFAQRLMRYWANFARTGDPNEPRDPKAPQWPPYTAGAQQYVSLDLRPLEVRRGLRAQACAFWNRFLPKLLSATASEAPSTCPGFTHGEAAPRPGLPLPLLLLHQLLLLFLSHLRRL
Chain of porcine liver carboxylesterase (CES, EC 3.1.1.1) (Q29550 19-566): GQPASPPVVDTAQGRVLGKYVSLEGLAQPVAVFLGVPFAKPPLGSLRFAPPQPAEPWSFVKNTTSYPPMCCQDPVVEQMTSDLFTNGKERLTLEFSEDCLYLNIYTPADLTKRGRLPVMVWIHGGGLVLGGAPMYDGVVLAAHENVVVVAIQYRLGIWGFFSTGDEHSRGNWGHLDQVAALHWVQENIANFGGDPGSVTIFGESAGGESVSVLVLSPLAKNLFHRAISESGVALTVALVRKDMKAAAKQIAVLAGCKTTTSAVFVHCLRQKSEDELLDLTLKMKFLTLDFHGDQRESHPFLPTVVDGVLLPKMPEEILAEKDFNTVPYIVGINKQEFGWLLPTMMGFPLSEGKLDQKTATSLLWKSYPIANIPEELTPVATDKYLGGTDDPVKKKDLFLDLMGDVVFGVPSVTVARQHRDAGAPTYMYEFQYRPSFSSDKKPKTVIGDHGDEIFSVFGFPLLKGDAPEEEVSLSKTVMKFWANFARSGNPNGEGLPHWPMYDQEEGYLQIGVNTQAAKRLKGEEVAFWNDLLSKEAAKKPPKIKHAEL
T2 sequence (P81908 whole entry): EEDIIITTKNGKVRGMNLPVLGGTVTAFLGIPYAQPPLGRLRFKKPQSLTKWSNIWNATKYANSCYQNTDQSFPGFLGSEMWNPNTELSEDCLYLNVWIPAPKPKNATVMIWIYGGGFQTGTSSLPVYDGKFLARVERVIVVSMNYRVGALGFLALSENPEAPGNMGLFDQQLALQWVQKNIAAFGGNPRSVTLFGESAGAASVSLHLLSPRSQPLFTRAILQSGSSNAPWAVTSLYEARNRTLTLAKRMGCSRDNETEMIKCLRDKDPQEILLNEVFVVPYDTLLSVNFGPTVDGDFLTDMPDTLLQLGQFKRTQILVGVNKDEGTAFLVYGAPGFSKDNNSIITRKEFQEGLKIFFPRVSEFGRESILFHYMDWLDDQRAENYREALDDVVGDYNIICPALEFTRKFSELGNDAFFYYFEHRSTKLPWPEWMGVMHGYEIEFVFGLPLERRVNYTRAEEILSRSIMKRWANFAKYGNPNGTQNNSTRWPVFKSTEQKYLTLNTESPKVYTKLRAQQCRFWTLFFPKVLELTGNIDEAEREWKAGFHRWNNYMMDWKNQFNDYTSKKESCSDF

| Structure (SMILES) | inhibition at 20 µM [1] [%] | MIC [2] [µg/mL] | ORAC-FL (TE, antioxidant activity in Trolox equivalents) [3] | MIC [4] [µg/mL] | MIC [5] [µg/mL] | survival at 14 days [6] [%] | inhibition at 20 µM [7] [%] | MIC [8] [µg/mL] | change in vivo at 15 mg/kg (Sprague-Dawley (SD) rats; [13]) [%] | change in vivo at 15 mg/kg (Sprague-Dawley (SD) rats; [14]) [%] | inhibition at 20 µM [9] [%] | MIC [10] [µg/mL] | FRAP (TE, antioxidant activity in Trolox equivalents) [11] | IC50 [12] [µM] | ABTS•+-scavenging activity, TEAC (trolox equivalent antioxidant capacity) [12] | other results |
| --- | --- | --- | --- | --- | --- | --- | --- | --- | --- | --- | --- | --- | --- | --- | --- | --- |
| O=C1/C(=N\Nc2ccc(Br)cc2)C(C(F)(F)F)=NN1c1ccccc1 [5k, (4Z)-4-[2-(4-Bromophenyl)hydrazinylidene]-2-phenyl-5-(trifluoromethyl)-2,4-dihydro-3H-pyrazol-3-one] | 5.4 ± 0.9 | > 200 | i.t.s. | > 200 | > 200 | 100 | 23.2 ± 2 | > 200 | 89 | 76 | 6 ± 1.1 | 31.2 (≈ 75.9 µM) | – | – | – | – |
| CS(=O)(=O)c1ccc(N/N=C2\C(=O)N(c3ccccc3)N=C2C(F)(F)C(F)(F)F)cc1 [6h, (4Z)-4-(2-[4-(Methylsulfonyl)phenyl]hydrazinylidene)-5-(pentafluoroethyl)-2-phenyl-2,4-dihydro-3H-pyrazol-3-one] | 4.1 ± 0.8 | > 200 | i.t.s. | > 200 | > 200 | 100 | 30.8 ± 2.7 | > 200 | 80 | 98 | 5.2 ± 0.9 | 250 (≈ 543 µM) | – | – | – | – |
| CC[C@@]1(O)C(=O)OCc2c1cc1n(c2=O)Cc2cc3ccccc3nc2-1 [Camptothecin, reference compound] | – | – | – | – | – | – | – | – | – | – | – | – | – | – | – | IC50 (HeLa tumor cell line): 1.08 ± 0.98 µM; IC50 (human dermal fibroblasts): 5.38 ± 0.48 µM |
| COc1cccc2c1C(=O)c1c(O)c3c(c(O)c1C2=O)C[C@@](O)(C(=O)CO)C[C@@H]3O[C@H]1C[C@H](N)[C@H](O)[C@H](C)O1 [Doxorubicin, reference compound] | – | – | – | – | – | – | – | – | – | – | – | – | – | – | – | IC50 (HeLa tumor cell line; MTT, n.a. = inactive): 4.25 ± 0.55 µM; IC50 (human dermal fibroblasts; MTT, n.a. = inactive): 2.72 ± 0.26 µM |
| CC1=NN(c2ccccc2)C(=O)C1 [Edaravone, reference compound] | – | – | 3.71 ± 0.06 | – | – | – | – | – | – | – | – | – | 0.80 ± 0.01 | 21.4 ± 1.8 | 0.96 ± 0.04 | – |
| Cc1c(C)c2c(c(C)c1O)CCC(C)(C(=O)O)O2 (stereo not drawn) [Trolox, 6-hydroxy-2,5,7,8-tetramethychroman-2-carboxylic acid, reference compound] | – | – | 1.0 | – | – | – | – | – | – | – | – | – | 1.0 | 19.7 ± 0.8 | 1.0 | – |
